In patent US7850981B2, “Immuno-adjuvant PDT treatment of metastatic tumors” (QLT, Inc., priority 1999, dated 2010):

Test system: M1 (rhabdomyosarcoma)
Experiment: M1 tumor response after PDT (verteporfin 1.0 mg/kg i.v. + light) with or without intratumoral DETOX B-SE
Assay type: in vivo, mice
Description: DETOX™ B-SE (Stable Emulsion) (LOT # PD: 071899-575-114) is a 1.0% squalene oil-in-water emulsion containing 145 μg/mL cell wall skeleton (CWS) from Mycobacterium phlei and 25 μg/mL monophosphoryl lipid A (MPL) from Salmonella minnesota R595 [Corixa Inc.]. DETOX™ B-SE was prepared according to the manufacturer's recommendations. Two concentrations were prepared by diluting DETOX™ B-SE in sterile PBS: 1:10 (7.25 μg/mL CWS, 1.25 μg/mL MPL) or 1:2.5 (29.0 μg/mL CWS, 5.0 μg/mL MPL). Aliquots (50 μL) were drawn into a tuberculin syringe with a 27 gauge needle prior to intratumoral injection.
Mice used in the experiments described below were implanted intradermally with a suspension of 2×10^4 M1 (rhabdomyosarcoma) cells on the right flank. Approximately six to ten days after implantation, the site was shaved and tumor growth measured using vernier calipers. Only mice bearing tumors 4-6 mm in diameter were selected for use.
Mice treated with PDT or PDV received 1.0 mg/kg of Verteporfin for Injection (VFI) administered intravenously by tail vein injection. Immediately after injection, the mice were placed in a darkened row of an enclosed, ventilated animal rack (condo unit) for 30 minutes. After 30 minutes, each mouse was secured in a metal holder so that the tumor was centered in a 1.0 cm diameter exposure area. The tumor site was exposed to light from an argon pump dye laser for either 14 minutes, to deliver 75 J/cm^2, or 4 minutes and 40 seconds, to deliver 25 J/cm^2. The light doses selected were chosen to deliver either a high PDT dose (75 J/cm^2) or a low PDT dose (25 J/cm 2). The exposure time in seconds was determined by dividing the light dose (J/cm^2) by light Intensity (W/cm^2).
Immediately following illumination and while still immobilized in the metal holder, mice received a single intratumoral injection of 50 μL of the 1:10 dilution DETOX™ B-SE, designed to deliver the adjuvant to the center of the tumor mass. Mice in treatment Groups 2 and 5 received 50 μL of 1:2.5 dilution following PDT. Mice in treatment Groups 3 and 6 received PDT treatment, but not adjuvant. Mice in Group 7 remained untreated and were monitored for tumor growth only. Mice in treatment Groups 1 and 4 were treated with 50 μL of 1:10 dilution following PDT.

[1] = Optimal PDT (75 J/cm^2), day 3 post-PDT
[2] = Optimal PDT (75 J/cm^2), day 7 post-PDT
[3] = Optimal PDT (75 J/cm^2), day 10 post-PDT
[4] = Optimal PDT (75 J/cm^2), day 14 post-PDT
[5] = Optimal PDT (75 J/cm^2), day 17 post-PDT
[6] = Optimal PDT (75 J/cm^2), day 20 post-PDT
[7] = Sub-optimal PDT (25 J/cm^2), day 3 post-PDT
[8] = Sub-optimal PDT (25 J/cm^2), day 7 post-PDT
[9] = Sub-optimal PDT (25 J/cm^2), day 10 post-PDT
[10] = Sub-optimal PDT (25 J/cm^2), day 14 post-PDT
[11] = Sub-optimal PDT (25 J/cm^2), day 17 post-PDT
[12] = Sub-optimal PDT (25 J/cm^2), day 20 post-PDT

**Q.** How did the “Survival (tumour less than 1 cm long, not euthanized)” value [1] turn out when “benzoporphyrin derivative monoacid ring A [verteporfin]” was run?
**A.** 100%

**Q.** And the Tumor-free mice [1]?
**A.** 100%

**Q.** What about the “Survival (tumour less than 1 cm long, not euthanized)” value [2] of the same substance?
**A.** 100%

**Q.** What about the Tumor-free mice [2] of the same substance?
**A.** 100%

**Q.** What about the “Survival (tumour less than 1 cm long, not euthanized)” value [3] of the same substance?
**A.** 100%

**Q.** What about the Tumor-free mice [3] of the same substance?
**A.** 100%

**Q.** What about the “Survival (tumour less than 1 cm long, not euthanized)” value [4] of the same substance?
**A.** 100%

**Q.** What about the Tumor-free mice [4] of the same substance?
**A.** 90%

**Q.** What about the “Survival (tumour less than 1 cm long, not euthanized)” value [5] of the same substance?
**A.** 100%

**Q.** And the Tumor-free mice [5]?
**A.** 90%

**Q.** And the “Survival (tumour less than 1 cm long, not euthanized)” value [6]?
**A.** 90%

**Q.** And the Tumor-free mice [6]?
**A.** 90%

**Q.** And the “Survival (tumour less than 1 cm long, not euthanized)” value [7]?
**A.** 100%

**Q.** And the Tumor-free mice [7]?
**A.** 100%

**Q.** And the “Survival (tumour less than 1 cm long, not euthanized)” value [8]?
**A.** 100%

**Q.** And the Tumor-free mice [8]?
**A.** 90%

**Q.** And the “Survival (tumour less than 1 cm long, not euthanized)” value [9]?
**A.** 100%

**Q.** What about the Tumor-free mice [9] of the same substance?
**A.** 80%

**Q.** What about the “Survival (tumour less than 1 cm long, not euthanized)” value [10] of the same substance?
**A.** 100%

**Q.** What about the Tumor-free mice [10] of the same substance?
**A.** 50%

**Q.** What about the “Survival (tumour less than 1 cm long, not euthanized)” value [11] of the same substance?
**A.** 80%

**Q.** What about the Tumor-free mice [11] of the same substance?
**A.** 70%

**Q.** What about the “Survival (tumour less than 1 cm long, not euthanized)” value [12] of the same substance?
**A.** 70%

**Q.** What about the Tumor-free mice [12] of the same substance?
**A.** 70%

**Q.** And the “animals with tumors that were regressing or had regressed completely by Day 20” value (low dose PDT (25 J/cm^2), adjuvant, where given, high dose (1:2.5))?
**A.** 2 out of 10 animals
